Our source for the inhibition in vivo, Activity and survival values is ChEMBL document CHEMBL4706663, “Large-scale isolation and antitumor mechanism evaluation of compounds from the traditional Chinese medicine Cordyceps Militaris” (Eur J Med Chem, 2021).

Series [1] is described as follows: Antitumor activity against […] cancer cells xenografted in BALB/c mouse assessed as tumor growth inhibition at 80 mg/kg, ig administered every day for 10 days relative to control. In kind it is functional. The following applies: Lewis lung carcinoma, po, 240 h, time 10 day, read-out: TGI.
A short description of series [2]: Antitumor activity against […] cells xenografted in KM mouse assessed as tumor weight at 27 mg/kg, ig administered every day for 10 days (reference value: 0.55 +/- 0.57 g). The following applies: time 10 day. The format is functional.
Series [3] concerns the target Dihydropyrimidinase-related protein 2 (Homo sapiens) (UniProt Q16555). As to the kind of experiment: Binding affinity to dihydropyrimidinase-related protein 2 isoform 1 in human A549 cells by LC-MS/MS analysis. In kind it is cell-based.
A short description of series [4]: Toxicity in […] lung cancer cells xenografted BALB/c mouse assessed as net weight at 80 mg/kg, ig administered every day for 10 days (reference value: 1.16 +/- 1.55 g). The format is organism-based. The following applies: in vivo, po, 240 h, time 10 day. A general note: In xenograft studies the graft and the host belong to different species.
Series [5] is described as follows: Antitumor activity against […] cells xenografted in KM mouse assessed as tumor weight at 240 mg/kg, ig administered every day for 10 days (reference value: 0.55 +/- 0.57 g). In kind it is functional. The following applies: time 10 day.
Series [6] in a line: Toxicity in […] lung cancer cells xenografted BALB/c mouse assessed as survival rate at 240 mg/kg, ig administered every day for 10 days (reference value: 100%). The format is organism-based. The following applies: in vivo, po, time 10 day.
Series [7] is described as follows: Toxicity in […] lung cancer cells xenografted BALB/c mouse assessed as survival rate at 80 mg/kg, ig administered every day for 10 days (reference value: 100%). In kind it is organism-based. The following applies: in vivo, po, time 10 day.
Series [8] can be described thus: Toxicity in […] lung cancer cells xenografted BALB/c mouse assessed as net weight at 240 mg/kg, ig administered every day for 10 days (reference value: 1.16 +/- 1.55 g). In kind it is organism-based. The following applies: in vivo, po, 240 h, time 10 day.
Series [9] in a line: Antitumor activity against […] cancer cells xenografted in BALB/c mouse assessed as lung weight at 240 mg/kg, ig administered every day for 10 days measured post last dose (reference value: 0.13 +/- 0.03 g). The format is functional, Lewis lung carcinoma. The following applies: time 10 day.
Series [10] can be described thus: Toxicity in […] cells xenografted KM mouse assessed as net weight at 80 mg/kg, ig administered every day for 10 days (reference value: 9.45 +/- 4 g). The following applies: in vivo, po, 240 h, time 10 day. The format is organism-based.

The source made the active and inactive calls. The rule behind the calls is not given here.

As for `CC(C)[C@@H](C)/C=C/[C@@H](C)[C@H]1CC[C@H]2C3=CC=C4C[C@@H](O)CC[C@]4(C)[C@H]3CC[C@]12C` [ERGOSTEROL], the inhibition in vivo at 80 mg/kg in series [1] was 28.4%. The Activity in [2] is on record as 0.42 g; in [4], -0.95 g; in [5], 0.19 g; in [8], -0.61 g; in [9] it was 0.13 g; in series [10], 7.78 g. For the same compound, the outcome in series [3] was Active. In addition, the survival at 240 h in [6] and in [7] was 100% throughout.
